The assay addresses T1, ΔF508-CFTR (Homo sapiens, UniProt P13569, DEL508-508).
T1 construct: expressed in transfected cells
The experiment in a line: Membrane potential optical (FRET/VIPR) assay, identification of correction compounds. Particulars: Table 3, assay not given; for Emax: read-out: % Activity / % Efficacy (relative efficacy). The format is cell-based. An excerpt:
I) Membrane Potential Optical Methods for Assaying ΔF508-CFTR Modulation Properties of Compounds
These voltage sensitive assays are based on the change in fluorescence resonant energy transfer (FRET) between the membrane-soluble, voltage-sensitive dye, DiSBAC2(3), and a fluorescent phospholipid, CC2-DMPE, which is attached to the outer leaflet of the plasma membrane and acts as a FRET donor. Changes in membrane potential (Vm) cause the negatively charged DiSBAC2(3) to redistribute across the plasma membrane and the amount of energy transfer from CC2-DMPE changes accordingly. The changes in fluorescence emission were monitored using VIPR™ II, which is an integrated liquid handler and fluorescent detector designed to conduct cell-based screens in 96- or 384-well microtiter plates.
Identification of Correction Compounds
To identify small molecules that correct the trafficking defect associated with ΔF508-CFTR; a single-addition HTS assay format was developed. The cells were incubated in serum-free medium for 16 hrs at 37° C. in the presence or absence (negative control) of test compound. As a positive control, cells plated in 384-well plates were incubated for 16 hrs at 27° C. to “temperature-correct” ΔF508-CFTR. The cells were subsequently rinsed 3× with Krebs Ringers solution and loaded with the voltage-sensitive dyes. To activate ΔF508-CFTR, 10 μM forskolin and the CFTR potentiator, genistein (20 μM), were added along with Cl^− free medium to each well. The addition of Cl^− free medium promoted Cl^− efflux in response to ΔF508-CFTR activation and the resulting membrane depolarization was optically monitored using the FRET-based voltage-sensor dyes.
• Bath Solution #1: (in mM) NaCl 160, KCl 4.5, CaCl2 2, MgCl2 1, HEPES 10, pH 7.4 with NaOH. • Chloride-free bath solution: Chloride salts in Bath Solution #1 are substituted with gluconate salts. • CC2-DMPE: Prepared as a 10 mM stock solution in DMSO and stored at −20° C. • DiSBAC2(3): Prepared as a 10 mM stock in DMSO and stored at −20° C.
NIH3T3 mouse fibroblasts stably expressing ΔF508-CFTR are used for optical measurements of membrane potential. The cells are maintained at 37° C. in 5% CO2 and 90% humidity in Dulbecco's modified Eagle's medium supplemented with 2 mM glutamine, 10% fetal bovine serum, 1×NEAA, β-ME, 1×pen/strep, and 25 mM HEPES in 175 cm^2 culture flasks. For all optical assays, the cells were seeded at 30,000/well in 384-well matrigel-coated plates and cultured for 2 hrs at 37° C. before culturing at 27° C. for 24 hrs. for the potentiator assay.

The structures appear in SMILES notation.

T1 sequence (P13569 with tags, fused parts or gaps DEL508-508): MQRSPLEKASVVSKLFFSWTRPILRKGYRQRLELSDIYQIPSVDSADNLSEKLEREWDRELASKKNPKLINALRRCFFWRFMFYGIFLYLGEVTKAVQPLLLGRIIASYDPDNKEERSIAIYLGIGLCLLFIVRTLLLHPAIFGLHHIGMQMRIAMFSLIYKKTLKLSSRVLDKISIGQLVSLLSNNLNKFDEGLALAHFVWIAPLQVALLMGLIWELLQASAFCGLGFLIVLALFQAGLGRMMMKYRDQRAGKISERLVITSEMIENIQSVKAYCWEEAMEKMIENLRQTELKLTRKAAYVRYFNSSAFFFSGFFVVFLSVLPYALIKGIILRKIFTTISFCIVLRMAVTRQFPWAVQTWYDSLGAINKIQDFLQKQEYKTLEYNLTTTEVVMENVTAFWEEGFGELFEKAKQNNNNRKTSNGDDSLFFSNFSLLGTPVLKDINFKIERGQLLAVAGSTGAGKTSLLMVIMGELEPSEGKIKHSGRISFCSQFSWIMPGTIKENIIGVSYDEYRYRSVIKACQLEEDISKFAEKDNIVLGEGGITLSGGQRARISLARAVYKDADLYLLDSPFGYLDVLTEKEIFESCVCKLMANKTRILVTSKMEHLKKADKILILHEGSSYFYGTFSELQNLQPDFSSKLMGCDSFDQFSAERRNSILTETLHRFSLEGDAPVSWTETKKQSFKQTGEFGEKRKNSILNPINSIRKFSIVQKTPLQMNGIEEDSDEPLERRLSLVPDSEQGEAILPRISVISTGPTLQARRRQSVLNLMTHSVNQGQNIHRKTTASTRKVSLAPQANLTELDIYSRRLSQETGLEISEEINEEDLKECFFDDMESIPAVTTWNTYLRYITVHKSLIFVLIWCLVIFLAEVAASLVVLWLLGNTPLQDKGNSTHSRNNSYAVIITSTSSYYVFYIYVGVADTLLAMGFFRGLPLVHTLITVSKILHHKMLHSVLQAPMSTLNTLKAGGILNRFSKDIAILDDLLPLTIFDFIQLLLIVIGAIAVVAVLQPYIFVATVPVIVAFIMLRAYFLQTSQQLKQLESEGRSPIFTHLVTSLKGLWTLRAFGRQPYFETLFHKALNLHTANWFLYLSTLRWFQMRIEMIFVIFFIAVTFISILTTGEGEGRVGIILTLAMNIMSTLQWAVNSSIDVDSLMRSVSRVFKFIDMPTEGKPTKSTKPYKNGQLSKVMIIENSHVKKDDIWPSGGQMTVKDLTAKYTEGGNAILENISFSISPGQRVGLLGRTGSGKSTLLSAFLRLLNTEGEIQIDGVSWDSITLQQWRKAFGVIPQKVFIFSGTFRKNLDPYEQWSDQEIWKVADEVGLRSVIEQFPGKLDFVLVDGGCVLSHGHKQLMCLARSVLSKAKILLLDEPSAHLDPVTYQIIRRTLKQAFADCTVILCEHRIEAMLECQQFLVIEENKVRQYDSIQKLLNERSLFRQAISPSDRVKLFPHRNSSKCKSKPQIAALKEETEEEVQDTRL

On to `COc1ccc(C2(C(=O)Nc3ncc(Sc4ccc(N)cc4)s3)CC2)cc1` [Example 96], for which the “% Activity / % Efficacy (relative efficacy)” value is “++ (“++” means between 25% to 100%)” and the EC50 is less than 10 µM.

With `COc1ccc(C2(C(=O)Nc3ncc(Sc4cccc(C(=O)O)c4)s3)CC2)cc1` [Example 97], the “% Activity / % Efficacy (relative efficacy)” value is given as “+++ (“+++” means>100%)” and the half-maximal effective concentration (EC50) was less than 10 µM.

Consider `Nc1ccccc1Sc1cnc(NC(=O)C2(c3ccc4c(c3)OCO4)CC2)s1` [Example 98], for which the “% Activity / % Efficacy (relative efficacy)” value was “+++ (“+++” means>100%)” and the EC50 is less than 10 µM.

As to `COc1ccccc1Sc1cnc(NC(=O)C2(c3ccc4c(c3)OCO4)CC2)s1` [Example 99], the “% Activity / % Efficacy (relative efficacy)” value is given as “+++ (“+++” means>100%)” and the concentration giving a half-maximal response (EC50) is less than 10 µM.

`Nc1ccc(Sc2cnc(NC(=O)C3(c4ccc5c(c4)OCO5)CC3)s2)cc1` [Example 100]: the “% Activity / % Efficacy (relative efficacy)” value is “++ (“++” means between 25% to 100%)” and the 50% effective concentration (EC50) is less than 10 µM.

For the compound `O=C(O)c1ccccc1Sc1cnc(NC(=O)C2(c3ccc4c(c3)OCO4)CC2)s1` [Example 101], the “% Activity / % Efficacy (relative efficacy)” value was “+++ (“+++” means>100%)” and the EC50 is less than 10 µM.

Consider `O=C(Nc1ncc(Sc2cccc(Cl)c2)s1)C1(c2ccc3c(c2)OCO3)CC1` [Example 102], for which the EC50 was less than 10 µM and the Emax is greater than 100%.

With `O=C(Nc1ncc(Sc2ccc(Cl)cc2)s1)C1(c2ccc3c(c2)OCO3)CC1` [Example 103], the “% Activity / % Efficacy (relative efficacy)” value was “++ (“++” means between 25% to 100%)” and the EC50 fell in the range of 25 to 60 µM.

For the compound `COc1ccc(C2(C(=O)Nc3ncc(Sc4ccccc4C(=O)O)s3)CC2)cc1` [Example 104], the “% Activity / % Efficacy (relative efficacy)” value is given as “+++ (“+++” means>100%)” and the EC50 was less than 10 µM.

For `O=C(Nc1ncc(Sc2ccccc2)s1)C1(c2ccc3c(c2)OCO3)CC1` [Example 105], the “% Activity / % Efficacy (relative efficacy)” value was “+++ (“+++” means>100%)” and the concentration giving a half-maximal response (EC50) is less than 10 µM.

In the case of `O=C(O)c1cccc(Sc2cnc(NC(=O)C3(c4ccc5c(c4)OCO5)CC3)s2)c1` [Example 106], the “% Activity / % Efficacy (relative efficacy)” value is “+++ (“+++” means>100%)” and the EC50 is less than 10 µM.

On to `CC(=O)c1sc(NC(=O)C2(c3ccc4c(c3)OCO4)CC2)nc1C` [Example 107], for which the “% Activity / % Efficacy (relative efficacy)” value is given as “+++ (“+++” means>100%)” and the 50% effective concentration (EC50) is less than 10 µM.

For `CCCc1nc(NC(=O)C2(c3ccc4c(c3)OCO4)CC2)sc1C(=O)OCC` [Example 108], the EC50 is less than 10 µM and the Emax was greater than 100%.

Take `CCOC(=O)c1sc(NC(=O)C2(c3ccc4c(c3)OCO4)CC2)nc1C(C)C` [Example 109]: the “% Activity / % Efficacy (relative efficacy)” value was “+++ (“+++” means>100%)” and the EC50 was less than 10 µM.

For the compound `O=C(Nc1nc2c(s1)-c1ccccc1CC2)C1(c2ccc3c(c2)OCO3)CC1` [Example 110], the “% Activity / % Efficacy (relative efficacy)” value is “+++ (“+++” means>100%)” and the EC50 is less than 10 µM.

As to `O=C(Nc1ncc(C2(c3ccccc3)CCCC2)s1)C1(c2ccc3c(c2)OCO3)CC1` [Example 111], the “% Activity / % Efficacy (relative efficacy)” value is reported as “+++ (“+++” means>100%)” and the EC50 was less than 10 µM.

`COc1ccccc1-c1csc(NC(=O)C2(c3ccc4c(c3)OCO4)CC2)n1` [Example 112]: the “% Activity / % Efficacy (relative efficacy)” value is on record as “+ (“+” means<25%)” and the concentration for a half-maximal effect (EC50) fell in the range of 10 to 25 µM.

For `COc1ccc(OC)c(-c2csc(NC(=O)C3(c4ccc5c(c4)OCO5)CC3)n2)c1` [Example 113], the “% Activity / % Efficacy (relative efficacy)” value was “+++ (“+++” means>100%)” and the 50% effective concentration (EC50) was less than 10 µM.

Turning to `COc1cccc(-c2csc(NC(=O)C3(c4ccc5c(c4)OCO5)CC3)n2)c1` [Example 114], the “% Activity / % Efficacy (relative efficacy)” value is recorded as “+++ (“+++” means>100%)” and the EC50 is less than 10 µM.

On to `O=C(Nc1nc(-c2ccc(Cl)c(Cl)c2)cs1)C1(c2ccc3c(c2)OCO3)CC1` [Example 117], for which the EC50 lay within 10 to 25 µM and the Emax lay within 25 to 100%.

Turning to `CS(=O)(=O)c1ccc(-c2csc(NC(=O)C3(c4ccc5c(c4)OCO5)CC3)n2)cc1` [Example 119], the “% Activity / % Efficacy (relative efficacy)” value is recorded as “++ (“++” means between 25% to 100%)” and the EC50 is less than 10 µM.

Turning to `CCN(CC)c1ccc(-c2csc(NC(=O)C3(c4ccc5c(c4)OCO5)CC3)n2)cc1` [Example 120], the “% Activity / % Efficacy (relative efficacy)” value was “+++ (“+++” means>100%)” and the EC50 is less than 10 µM.

For the compound `COc1ccc(C2(C(=O)Nc3nc(-c4ccccc4OC)cs3)CC2)cc1` [Example 121], the 50% effective concentration (EC50) is less than 10 µM and the Emax was greater than 100%.

As to `COc1ccc(C2(C(=O)Nc3nc(-c4cccc(OC)c4)cs3)CC2)cc1` [Example 122], the “% Activity / % Efficacy (relative efficacy)” value is given as “+++ (“+++” means>100%)” and the concentration for a half-maximal effect (EC50) is less than 10 µM.

With `COc1ccc(C2(C(=O)Nc3nc(-c4cccc(Cl)c4)cs3)CC2)cc1` [Example 123], the “% Activity / % Efficacy (relative efficacy)” value was “+++ (“+++” means>100%)” and the EC50 is less than 10 µM.

In the case of `COc1ccc(C2(C(=O)Nc3nc(-c4ccc(Cl)c(Cl)c4)cs3)CC2)cc1` [Example 124], the “% Activity / % Efficacy (relative efficacy)” value is recorded as “++ (“++” means between 25% to 100%)” and the EC50 was in the range of 25 to 60 µM.

With `COc1ccc(C2(C(=O)Nc3nc(-c4ccc(S(C)(=O)=O)cc4)cs3)CC2)cc1` [Example 125], the “% Activity / % Efficacy (relative efficacy)” value is recorded as “+++ (“+++” means>100%)” and the concentration for a half-maximal effect (EC50) was less than 10 µM.

As to `O=C(Nc1nc(-c2ccc(Cl)cc2Cl)cs1)C1(c2ccc3c(c2)OCO3)CC1` [Example 126], the “% Activity / % Efficacy (relative efficacy)” value is “+++ (“+++” means>100%)” and the half-maximal effective concentration (EC50) is less than 10 µM.

For the compound `Cc1ccc(-c2csc(NC(=O)C3(c4ccc5c(c4)OCO5)CC3)n2)c(C)c1` [Example 127], the “% Activity / % Efficacy (relative efficacy)” value was “+++ (“+++” means>100%)” and the EC50 is less than 10 µM.

For `O=C(Nc1ncc(C(SCCCCO)c2ccccc2Cl)s1)C1(c2ccc3c(c2)OCO3)CC1` (stereo not drawn) [Example 131], the EC50 was less than 10 µM.

Take `O=C(c1cnc(NC(=O)C2(c3ccc4c(c3)OCO4)CC2)s1)c1ccccc1Cl` [Example 136]: the “% Activity / % Efficacy (relative efficacy)” value is recorded as “+++ (“+++” means>100%)” and the concentration for a half-maximal effect (EC50) was less than 10 µM.

As for `COc1ccc(C2(C(=O)Nc3ncc(Cc4cccc(Cl)c4)o3)CC2)cc1` [Example 153], the “% Activity / % Efficacy (relative efficacy)” value is “++ (“++” means between 25% to 100%)” and the EC50 was less than 10 µM.

Take `COc1ccc(C2(C(=O)Nc3ncc(Cc4ccccc4OC)o3)CC2)cc1` [Example 156]: the concentration for a half-maximal effect (EC50) is less than 10 µM and the Emax was greater than 100%.

Turning to `O=C(Nc1ncc(Cc2cccc(F)c2Cl)s1)C1(c2ccc3c(c2)OCO3)CC1` [Example 159], the “% Activity / % Efficacy (relative efficacy)” value is listed as “+++ (“+++” means>100%)” and the EC50 is less than 10 µM.

With `O=C(Nc1ncc(Cc2cccc(Cl)c2)o1)C1(c2ccc3c(c2)OCO3)CC1` [Example 166], the “% Activity / % Efficacy (relative efficacy)” value is “+++ (“+++” means>100%)” and the EC50 was less than 10 µM.

Regarding `COc1ccccc1Cc1cnc(NC(=O)C2(c3ccc4c(c3)OCO4)CC2)o1` [Example 169], the “% Activity / % Efficacy (relative efficacy)” value is recorded as “++ (“++” means between 25% to 100%)” and the half-maximal effective concentration (EC50) was less than 10 µM.

As for `COc1ccccc1Cc1cnc(NC(=O)C2(c3ccc(SC)cc3)CC2)s1` [Example 173], the “% Activity / % Efficacy (relative efficacy)” value is given as “+++ (“+++” means>100%)” and the half-maximal effective concentration (EC50) is less than 10 µM.

Turning to `O=C(Nc1ncc(Cc2ccccc2Cl)s1)C1(c2ccc(OC(F)(F)F)cc2)CC1` [Example 174], the “% Activity / % Efficacy (relative efficacy)” value is given as “+++ (“+++” means>100%)” and the half-maximal effective concentration (EC50) was less than 10 µM.

Consider `CSc1ccc(C2(C(=O)Nc3ncc(Cc4ccccc4Cl)s3)CC2)cc1` [Example 175], for which the “% Activity / % Efficacy (relative efficacy)” value is “+++ (“+++” means>100%)” and the half-maximal effective concentration (EC50) was less than 10 µM.

As to `COc1ccc(C2(C(=O)Nc3ncc(Cc4cccnc4OC)s3)CC2)cc1` [Example 176], the “% Activity / % Efficacy (relative efficacy)” value is given as “+++ (“+++” means>100%)” and the EC50 is less than 10 µM.

As for `COc1ccc(C2(C(=O)Nc3ncc(Cc4cc(F)ccc4OC)s3)CC2)cc1` [Example 179], the “% Activity / % Efficacy (relative efficacy)” value is on record as “+++ (“+++” means>100%)” and the EC50 was less than 10 µM.

The term EC50 denotes the concentration needed to bring the measured effect to its halfway point.

The record behind these values is patent publication US7977322B2 (Vertex Pharmaceuticals Incorporated, priority 2004, dated 2011).
